Source: patent publication US20250248975
Read-outs that look alike come from different tables or passages of the source.

## COC(=O)/C=C/c1cccc(C2(C)CCCC#Cc3nc(cs3)Cc3c(c(F)cc4c3ccn4S(=O)(=O)c3ccc(C)cc3)Oc3ccc(F)c(c3)-c3ncc2[nH]3)c1 (centres unmarked)
From C#CCCCC(C)(c1cccc(/C=C/C(=O)OC)c1)c1cnc(-c2cc(Oc3c(F)cc4c(ccn4S(=O)(=O)c4ccc(C)cc4)c3Cc3csc(I)n3)ccc2F)[nH]1, cc_pd bond, 19-membered ring, PdCl2(PPh3)2/CuI/TEA, DMF, 10.6 mM, 60.0 °C
  ring closure, isolated yield: 15%

## Cc1ccc(S(=O)(=O)n2ccc3c4c(c(F)cc32)Sc2ccc(F)c(c2)-c2ccn(n2)C(c2cccc(Br)c2)CCOCC(C)(C)c2cn(nn2)C4)cc1 (centres unmarked)
From C#CC(C)(C)COCCC(c1cccc(Br)c1)n1ccc(-c2cc(Sc3c(F)cc4c(ccn4S(=O)(=O)c4ccc(C)cc4)c3CN=[N+]=[N-])ccc2F)n1, triazole bond, 19-membered ring, Cu(MeCN)4BF4 (0.1 eq)/TBTA (0.1 eq), DCM, 43.4 mM, 45.0 °C
  ring closure, isolated yield: 61%

## Cn1cc2nc1-c1cccc(c1)Oc1c(F)cc3[nH]ccc3c1Cn1cc(nn1)C(C)(C)OCCCC2(C)c1cccc(Br)c1 (centres unmarked)
From C#CC(C)(C)OCCCC(C)(c1cccc(Br)c1)c1cn(C)c(-c2cccc(Oc3c(F)cc4[nH]ccc4c3CN=[N+]=[N-])c2)n1, triazole bond, 19-membered ring, Cu(MeCN)4BF4/TBTA, DCM, 3.2 mM, 45.0 °C
  ring closure, isolated yield: 60%

## C#CC(C)(C)CCCCC(C)(c1cccc(CCC(=O)OC)c1)c1csc(-c2cc(Oc3c(F)cc4[nH]ccc4c3CN=[N+]=[N-])ccc2F)n1 (centres unmarked)
The molecule shown is the open-chain precursor, triazole bond, 19-membered ring
  ring closure, isolated yield: 77%

## Cn1nc2nc1-c1cc(ccn1)Oc1c(F)cc3[nH]ccc3c1Cn1cc(nn1)C(C)(C)CCCC[C@]2(C)c1cccc(I)c1
Triazole bond, 19-membered ring, 4 steps
  ring closure, isolated yield: 22.1%

## Cn1nc2nc1-c1cc(ccc1F)Oc1c(F)cc3c(ccn3S(=O)(=O)c3ccccc3)c1Cn1cc(cn1)C(C)(C)C/C=C\CC2(C)c1cccc(Br)c1 (centres unmarked)
Rcm bond, 19-membered ring, Grubbs II, toluene, 100.0 °C
  ring closure, isolated yield: 62%

## Cc1ccc(S(=O)(=O)n2ccc3c4c(c(F)cc32)Sc2cccc(c2)-c2ccn(n2)C(c2cccc(Br)c2)CCCCC(C)(C)c2cn(nn2)C4)cc1 (centres unmarked)
Triazole bond, 19-membered ring, 3 steps
  ring closure, isolated yield: 22.5%

## CCOC(=O)CCc1cccc(C2CC/C=C/CC(C)(C)c3cnn(c3)Cc3c(c(F)cc4c3ccn4S(=O)(=O)c3ccc(C)cc3)Oc3ccc(F)c(c3)-c3ccn2n3)c1 (centres unmarked)
From C=CCCC(c1cccc(CCC(=O)OCC)c1)n1ccc(-c2cc(Oc3c(F)cc4c(ccn4S(=O)(=O)c4ccc(C)cc4)c3Cn3cc(C(C)(C)CC=C)cn3)ccc2F)n1, rcm bond, 20-membered ring, Hoveyda-Grubbs II, toluene, 1.26 mM, 60.0 °C, 12.0 h
  ring closure, isolated yield: 66%

## Methyl (2R)-3-[3-[21-(benzenesulfonyl)-9,9,24,30-tetrafluoro-3,6-dimethyl-)1-oxa-26-thia-3,4,15,21,32,33-hexazahexacyclo[25.3.1.12,5.112,15.017,25.018,22]tritriaconta-1(31),2(33),4,12(32),13,17,19,22,24,27,29-undecaen-6-yl]phenyl]-2-methylpropanoate
Other bond, 19-membered ring, CMBP, toluene, 150.0 °C, 3 steps
  ring closure, isolated yield: 11.6%

## CC1(c2cccc(I)c2)CCCC(O)CNC(=O)/C=C/c2c(c(F)cc3[nH]ccc23)Oc2ccc(F)c(c2)-c2ncc1[nH]2 (centres unmarked)
From CC(CCCC(O)CN)(c1cccc(I)c1)c1cnc(-c2cc(Oc3c(F)cc4[nH]ccc4c3/C=C/C(=O)O)ccc2F)[nH]1, amide bond, 19-membered ring, EDC.HCl/HOBt, THF/DMF 10:1, 102.0 mM, 18.0 h
  ring closure, isolated yield: 40%

## CCOC(=O)C(C)Cc1cccc(C2(C)CCC(C)(C)COc3ccn(n3)Cc3c(c(F)cc4c3ccn4S(=O)(=O)c3ccccc3)Oc3ccc(F)c(c3)-c3nc2nn3C)c1 (single isomer, unassigned; isomer 2)
From CCOC(=O)C(C)Cc1cccc(C(C)(CCC(C)(C)COc2cc[nH]n2)c2nc(-c3cc(Oc4c(F)cc5c(ccn5S(=O)(=O)c5ccccc5)c4CO)ccc3F)n(C)n2)c1, other bond, 18-membered ring, CMBP, toluene, 13.6 mM, 150.0 °C, 1.0 h
  ring closure, isolated yield: 21%

## Cn1nc2nc1-c1cc(ccc1F)Sc1c(F)cc3c(ccn3S(=O)(=O)c3ccccc3)c1Cn1cc(cn1)C(C)(C)C/C=C\CC2(C)c1cccc(Br)c1 (centres unmarked)
Rcm bond, 19-membered ring
  ring closure, isolated yield: 79%

## CCOC(=O)C(C)Cc1cccc(C2(C)CCC(C)(C)COc3cn(nn3)Cc3c(c(F)cc4c3ccn4S(=O)(=O)c3ccccc3)Oc3ccc(F)c(c3)-c3nc2nn3C)c1 (centres unmarked)
From CCOC(=O)C(C)Cc1cccc(C(C)(CCC(C)(C)CO)c2nc(-c3cc(Oc4c(F)cc5c(ccn5S(=O)(=O)c5ccccc5)c4Cn4cc(O)nn4)ccc3F)n(C)n2)c1, ether bond, 19-membered ring, CMBP, toluene, 11.3 mM, 150.0 °C, 1.0 h
  ring closure, isolated yield: 50%

## Mixture of 21-(benzenesulfonyl)-6-(3-bromophenyl)-24,30-difluoro-10,10-dimethyl-9,26-dioxa-5,12,13,21,33-pentazahexacyclo[25.3.1.12,5.112,15.017,25.018,22]tritriaconta-1(31),2(33),3,13,15(32),17,19,22,24,27,29-undecaene and 22-(benzenesulfonyl)-7-(3-bromophenyl)-25,31-difluoro-11,11-dimethyl-10,27-dioxa-5,6,13,14,22-pentazahexacyclo[26.3.1.113,16.02,6.018,26.019,23]tritriaconta-1(32),2,4,14,16(33),18,20,23,25,28,30-undecaene
Other bond, 19-membered ring, CMBP, 1,4-dioxane, 24.7 mM, 145.0 °C
  ring closure, isolated yield: 55%
